Source: patent US9073892B2, “Indazolyl triazol derivatives” (Merck Serono S.A., priority 2010, dated 2015)
Structures can show the parent of a compound that is named as a salt.

Experiments:
[1] = test system: T1, IRAK1/4 human; experiment: IRAK1/4 phosphorylation IC50 (enzymatic assay, table 2); assay type: biochemical; settings: human IRAK1/4 phosphorylation
T1 construct: fused on or other part: His tag and TEV cleavage site at the N-terminus
Outline: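 His-TEV-tagged human IRAK-1 or IRAK-4 (IRAK-4 with STK1-biotin peptide) was incubated in 384-well plates with ATP and compounds in DMSO from 20 µM to 1 nM, with 2% DMSO controls. The buffer was Hepes pH7.0 50 mM with MgCl2, DTT, EGTA and BSA, and reactions ran 2 or 3 hours. Inhibition was reported as IC50.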

[2] = test system: IL1β-induced IL8 release in THP1 cells; experiment: IRAK IL8 secretion functional assay; assay type: cell-based; settings: Homo sapiens; THP-1 cells, IL1β 100 ng/ml overnight, IL8 by HTRF; read-out: IC50, Secretion THP-1/IL-β induced IL8 release
Description: IRAK IL8 Secretion Functional Assay:
THP1 cells are human monocytes derived from acute monocytic leukemia. IL1β receptor expressed on the surface membrane of THP1 cells induced IL8 release. IRAKs are kinase signaling downstream of TLRs and TNF, IL-18, IL-33 and IL-1 receptors.
In cells, IRAK4 is upstream of IRAK1.
The Human IL8 Kit, provided by CysBio International based in Bagnols/Cèze FR, allows for the quantitative determination of IL-8 in cell-culture supernatants.
Anti-cytokine IL8 antibodies are respectively labeled with europium Cryptate and XL665. Upon their binding to IL-8 molecules, the two antibodies come into close proximity, allowing FRET (Fluorescence Resonance Energy Transfer) to occur. This FRET increases proportionally to IL-8 concentrations and be converted in IL8 pg amounts.
THP-1 cells are seeded on Day 1 in 384 well plate with RPMI 1640 at a density of 30 000 cells/well. Compounds 4×/2% DMSO (range of concentrations from 20 μM to 1 nM) and IL1β 4× at 100 ng/ml final are added to cells overnight at 37° C., 5% CO2. Measurement of IL-8 secretion is done by mixing on Day2 10 μl of supernatant with 10 μl of a mix solution of europium Cryptate and XL665 (v:v) as described by supplier.
HTRF (homogeneous time resolved fluorescence) signal is measured after 3 hours incubation time at 30° C. with a BMG Pherastar reader or equivalent.

| SMILES | IC50 [1] [µM] | IC50 [2] [µM] |
| --- | --- | --- |
| O=C(c1ccc(-n2cc(-c3n[nH]c4ccc(CO)cc34)nn2)cc1)N1CCOCC1 [Example 93, (3-{1-[4(morpholin-4-ylcarbonyl)phenyl]-1H-1,2,3-triazol-4-yl}-1H-indazol-5-yl)methanol] | 0.1 to 1 | 1 to 5 |
| O=C(c1ccc(-n2cc(-c3n[nH]c4ccc(Cn5nc(-c6cc(F)cc(F)c6)ccc5=O)cc34)nn2)cc1)N1CCOCC1 [Example 94, 6-(3,5-difluorophenyl)-2-[(3-{1-[4-(morpholin-4-ylcarbonyl)phenyl]-1H-1,2,3-triazol-4-yl}-1H-indazol-5-yl)methyl]pyridazin-3(2H)-one] | < 0.1 | 0.1 to 1 |
| O=C(c1ccc(-n2cc(-c3n[nH]c4ccc(Cn5ncccc5=O)cc34)nn2)cc1)N1CCOCC1 [Example 95, 2-[(3-{1-[4-(morpholin-4-ylcarbonyl)phenyl]-1H-1,2,3-triazol-4-yl}-1H-indazol-5-yl)methyl]pyridazin-3(2H)-one] | 0.1 to 1 | 1 to 5 |
| O=C(c1ccc(-n2cc(-c3n[nH]c4ccccc34)nn2)cc1)N1CCC[C@@H](O)C1 [Example 96, (3R)-1-{4-[4-(1H-indazol-3-yl)-1H-1,2,3-triazol-1-yl]benzoyl}piperidin-3-ol] | 0.1 to 1 | 0.1 to 1 |
| O=C(c1ccc(-n2cc(-c3n[nH]c4ccccc34)nn2)cc1)N1CCC[C@H](O)C1 [Example 97, (3S)-1-{4-[4-(1H-indazol-3-yl)-1H-1,2,3-triazol-1-yl]benzoyl}piperidin-3-ol] | 0.1 to 1 | 0.1 to 1 |
| CN1CCC(n2cc(NC(=O)c3ccc(-n4cc(-c5n[nH]c6ccccc56)nn4)cc3)cn2)CC1 [Example 98, 4-[4-(1H-indazol-3-yl)-1H-1,2,3-triazol-1-yl]-N-[1-(1-methylpiperidin-4-yl)-1H-pyrazol-4-yl]benzamide] | < 0.1 | 0.1 to 1 |
| O=C(c1ccc(-n2cc(-c3n[nH]c4ccccc34)nn2)cc1)N1CCC[C@H]1CO [Example 99] | 0.1 to 1 | 0.1 to 1 |
| O=C(c1ccc(-n2cc(-c3n[nH]c4ccccc34)nn2)cc1)N1CCCCC1CO (stereo not drawn) [Example 100, (1-{4-[4-(1H-indazol-3-yl)-1H-1,2,3-triazol-1-yl]benzoyl}piperidin-2-yl)methanol] | 0.1 to 1 | 0.1 to 1 |
| O=C(c1ccc(-n2cc(-c3n[nH]c4ccccc34)nn2)cc1C(F)(F)F)N1CCOCC1 [Example 101, 3-{1-[4-(morpholin-4-ylcarbonyl)-3-(trifluoromethyl)phenyl]-1H-1,2,3-triazol-4-yl}-1H-indazole] | 0.1 to 1 | 1 to 5 |
| O=C(c1ccc(-n2cc(-c3n[nH]c4ccc(Cn5nc(-c6ccncc6)ccc5=O)cc34)nn2)cc1)N1CCOCC1 [Example 103, 2-[(3-{1-[4-(morpholin-4-ylcarbonyl)phenyl]-1H-1,2,3-triazol-4-yl}-1H-indazol-5-yl)methyl]-6-pyridin-4-ylpyridazin-3(2H)-one] | < 0.1 | 0.1 to 1 |
| CN1CC=C(c2ccc3[nH]nc(-c4cn(-c5ccc(C(=O)N6CCOCC6)cc5)nn4)c3c2)CC1 [Example 104, 5-(1-methyl-1,2,3,6-tetrahydropyridin-4-yl)-3-{1-[4-(morpholin-4-ylcarbonyl)phenyl]-1H-1,2,3-triazol-4-yl}-1H-indazole] | < 0.1 | 0.1 to 1 |
| CC(=O)N1CCC(c2ccc3[nH]nc(-c4cn(-c5ccc(C(=O)N6CCOCC6)cc5)nn4)c3c2)CC1 [Example 105, 5-(1-acetylpiperidin-4-yl)-3-{1-[4-(morpholin-4-ylcarbonyl)phenyl]-1H-1,2,3-triazol-4-yl}-1H-indazole] | 0.1 to 1 | 1 to 5 |
| O=C(c1ccc(-n2cc(-c3n[nH]c4ccc(C5=CCN(Cc6ccccc6)CC5)cc34)nn2)cc1)N1CCOCC1 [Example 106, 5-(1-benzyl-1,2,3,6-tetrahydropyridin-4-yl)-3-{1-[4-(morpholin-4-ylcarbonyl)phenyl]-1H-1,2,3-triazol-4-yl}-1H-indazole] | 0.1 to 1 | 1 to 5 |
| COC[C@@H]1CCCN1C(=O)c1ccc(-n2cc(-c3n[nH]c4ccccc34)nn2)cc1 [Example 108, 3-[1-(4-{[(2S)-2-(methoxymethyl)pyrrolidin-1-yl]carbonyl}phenyl)-1H-1,2,3-triazol-4-yl]-1H-indazole] | < 0.1 | 0.1 to 1 |
| COC1CCN(C(=O)c2ccc(-n3cc(-c4n[nH]c5ccccc45)nn3)cc2)CC1 [Example 109, 3-(1-{4-[(4-methoxypiperidin-1-yl)carbonyl]phenyl}-1H-1,2,3-triazol-4-yl)-1H-indazole] | 0.1 to 1 | 0.1 to 1 |
| Cc1ccc(=O)n(Cc2ccc3[nH]nc(-c4cn(-c5ccc(C(=O)N6CCOCC6)cc5)nn4)c3c2)n1 [Example 110] | 0.1 to 1 | 1 to 5 |
| O=C(Nc1cnn(CCN2CCOCC2)c1)c1ccc(-n2cc(-c3n[nH]c4ccccc34)nn2)cc1 [Example 111, 4-[4-(1H-indazol-3-yl)-1H-1,2,3-triazol-1-yl]-N-[1-(2-morpholin-4-ylethyl)-1H-pyrazol-4-yl]benzamide] | 0.1 to 1 | 0.1 to 1 |
| CN1CCC(n2cc(NC(=O)c3ccc(-n4cc(-c5n[nH]c6ccccc56)nn4)cc3)cn2)C1 (stereo not drawn) [Example 112, 4-[4-(1H-indazol-3-yl)-1H-1,2,3-triazol-1-yl]-N-[1-(1-methylpyrrolidin-3-yl)-1H-pyrazol-4-yl]benzamide] | < 0.1 | 0.1 to 1 |
| COCCC1CCCN(C(=O)c2ccc(-n3cc(-c4n[nH]c5ccccc45)nn3)cc2)C1 (stereo not drawn) [Example 113] | 0.1 to 1 | 0.1 to 1 |
| O=C(c1ccc(-n2cc(-c3n[nH]c4ccccc34)nn2)cc1)N1CC(O)C1 [Example 114, 1-{4-[4-(1H-indazol-3-yl)-1H-1,2,3-triazol-1-yl]benzoyl}azetidin-3-ol] | 0.1 to 1 | 0.1 to 1 |
| Cc1nccn1CC1CCCN(C(=O)c2ccc(-n3cc(-c4n[nH]c5ccccc45)nn3)cc2)C1 (stereo not drawn) [Example 115, 3-{1-[4-({3-[(2-methyl-1H-imidazol-1-yl)methyl]piperidin-1-yl}carbonyl)phenyl]-1H-1,2,3-triazol-4-yl}-1H-indazole] | 0.1 to 1 | 0.1 to 1 |
| O=C(c1ccc(-n2cc(-c3n[nH]c4ccccc34)nn2)cc1)N1CCCCC1CCO (stereo not drawn) [Example 117, 2-(1-{4-[4-(1H-indazol-3-yl)-1H-1,2,3-triazol-1-yl]benzoyl}piperidin-2-yl)ethanol] | 0.1 to 1 | 0.1 to 1 |
| COCC1CCCN(C(=O)c2ccc(-n3cc(-c4n[nH]c5ccccc45)nn3)cc2)C1 (stereo not drawn) [Example 118, 3-[1-(4-{[3-(methoxymethyl)piperidin-1-yl]carbonyl}phenyl)-1H-1,2,3-triazol-4-yl]-1H-indazole] | 0.1 to 1 | 0.1 to 1 |
| O=C(c1ccc(-n2cc(-c3n[nH]c4ccccc34)nn2)cc1)N1CCC(N2CCCC2)CC1 [Example 120, 3-(1-{4-[(4-pyrrolidin-1-ylpiperidin-1-yl)carbonyl]phenyl}-1H-1,2,3-triazol-4-yl)-1H-indazole] | 0.1 to 1 | 0.1 to 1 |
| O=C(c1ccc(-n2cc(-c3n[nH]c4ccc(C5CCN(CCF)CC5)cc34)nn2)cc1)N1CCOCC1 [Example 121, 5-[1-(2-fluoroethyl)piperidin-4-yl]-3-{1-[4-(morpholin-4-ylcarbonyl)phenyl]-1H-1,2,3-triazol-4-yl}-1H-indazole] | < 0.1 | 0.1 to 1 |
| Cn1cc(-c2ccc3[nH]nc(-c4cn(-c5ccc(C(=O)N6CCOCC6)cc5)nn4)c3c2)cn1 [Example 123, 5-(1-methyl-1H-pyrazol-4-yl)-3-{1-[4-(morpholin-4-ylcarbonyl)phenyl]-1H-1,2,3-triazol-4-yl}-1H-indazole] | < 0.1 | < 0.1 |
| O=C(c1ccc(-n2cc(-c3n[nH]c4ccccc34)nn2)cc1)N1CCCC(Cn2ccnc2)C1 (stereo not drawn) [Example 126, 3-[1-(4-{[3-(1H-imidazol-1-ylmethyl)piperidin-1-yl]carbonyl}phenyl)-1H-1,2,3-triazol-4-yl]-1H-indazole] | < 0.1 | 0.1 to 1 |
| COC1CCCN(C(=O)c2ccc(-n3cc(-c4n[nH]c5ccccc45)nn3)cc2)C1 (stereo not drawn) [Example 127] | < 0.1 | 0.1 to 1 |
| O=C(Nc1cnn(C2CCNCC2)c1)c1ccc(-n2cc(-c3n[nH]c4ccccc34)nn2)cc1 [Example 128, 4-[4-(1H-indazol-3-yl)-1H-1,2,3-triazol-1-yl]-N-(1-piperidin-4-yl-1H-pyrazol-4-yl)benzamide hydrochloride] | 0.1 to 1 | 1 to 5 |
| O=C(Nc1cnn(C2CCCNCC2)c1)c1ccc(-n2cc(-c3n[nH]c4ccccc34)nn2)cc1 (stereo not drawn) [Example 129, N-(1-azepan-4-yl-1H-pyrazol-4-yl)-4-[4-(1H-indazol-3-yl)-1H-1,2,3-triazol-1-yl]benzamide hydrochloride] | 0.1 to 1 | 1 to 5 |
